# In patent publication US10722501B2 (BAYER AKTIENGESELLSCHAFT, priority 2016, dated 2020):
# Target: T1, recombinant full-length human prolyl endopeptidase (PREP) (Homo sapiens, UniProt P48147)
# T1 construct: To recombinant full-length human prolyl endopeptidase (PREP, R&D-Systems, 4308-SE); purchased R&D-Systems 4308-SE
# T1 sequence (P48147 1-710): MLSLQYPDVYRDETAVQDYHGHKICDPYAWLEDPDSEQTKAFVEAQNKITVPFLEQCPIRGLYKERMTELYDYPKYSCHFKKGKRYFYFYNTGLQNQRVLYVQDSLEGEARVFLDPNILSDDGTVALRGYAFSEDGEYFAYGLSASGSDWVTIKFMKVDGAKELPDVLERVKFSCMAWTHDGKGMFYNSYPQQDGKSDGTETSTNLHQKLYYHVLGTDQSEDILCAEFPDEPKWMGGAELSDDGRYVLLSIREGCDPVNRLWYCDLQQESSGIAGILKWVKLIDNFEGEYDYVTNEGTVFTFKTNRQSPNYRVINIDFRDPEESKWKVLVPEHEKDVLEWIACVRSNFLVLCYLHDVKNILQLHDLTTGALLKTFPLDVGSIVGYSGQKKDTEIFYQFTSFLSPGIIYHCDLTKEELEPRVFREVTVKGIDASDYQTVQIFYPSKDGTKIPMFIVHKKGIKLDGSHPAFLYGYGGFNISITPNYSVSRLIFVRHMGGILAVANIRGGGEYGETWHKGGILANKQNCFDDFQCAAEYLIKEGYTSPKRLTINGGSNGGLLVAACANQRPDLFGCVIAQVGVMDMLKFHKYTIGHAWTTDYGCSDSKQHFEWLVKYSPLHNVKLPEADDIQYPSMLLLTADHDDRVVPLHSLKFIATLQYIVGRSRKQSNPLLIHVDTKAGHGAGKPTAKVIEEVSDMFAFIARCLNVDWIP
# Assay: Biochemical human prolyl endopeptidase (PREP) assay with fluorescently labelled substrate
# Conditions: substrate Z-Gly-Pro-AMC 50 μM, 32° C., 60 min; some as mean values from multiple independent determinations
# Summary of the method: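 0.4 nM (final, example) recombinant PREP in pH 7.5 Tris buffer with EDTA, GSH, BSA and Brij-35; compounds at 1 nM to 30 μM. Reaction started with 50 μM Z-Gly-Pro-AMC and followed by fluorescence (ex 360/em 465 nm) at 32° C for 60 min. IC50 interpolated from percent activity based on initial slopes.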
row,IC50,Compound
1,3.9 nM,"O=C(C1CCCc2nn(Cc3ncc(C(F)(F)F)cc3Cl)c(=O)n21)N1CCCC1 (racemic) [Example 68, (5RS)-2-{[3-Chloro-5-(trifluoromethyl)pyridin-2-yl]methyl}-5-(pyrrolidin-1-ylcarbonyl)-5,6,7,8-tetrahydro[1,2,4]triazolo[4,3-a]pyridin-3(2H)-one]"
2,210 nM,"O=C(C1CCCc2nn(Cc3noc(-c4cccc(C(F)(F)F)c4)n3)c(=O)n21)N1CCCC1 (racemic) [Example 69, (5RS)-5-(Pyrrolidin-1-ylcarbonyl)-2-({5-[3-(trifluoromethyl)phenyl]-1,2,4-oxadiazol-3-yl}methyl)-5,6,7,8-tetrahydro[1,2,4]triazolo[4,3-a]pyridin-3(2H)-one]"
3,11 nM,"CCn1ccnc1Cn1nc2n(c1=O)C(C(=O)N1CCCC1)CCC2 (racemic) [Example 70, (5RS)-2-[(1-Ethyl-1H-imidazol-2-yl)methyl]-5-(pyrrolidin-1-ylcarbonyl)-5,6,7,8-tetrahydro[1,2,4]triazolo[4,3-a]pyridin-3(2H)-one]"
4,0.71 nM,O=C(C1CCCc2nn(Cc3cccc(C(F)(F)F)c3F)c(=O)n21)N1CCCC1 (racemic) [Example 71]
5,0.83 nM,O=C(C1CCCc2nn(Cc3cc(F)cc(C(F)(F)F)c3)c(=O)n21)N1CCCC1 (racemic) [Example 72]
6,1.5 nM,"O=C(C1CCCc2nn(Cc3ccc(OC(F)(F)F)c(Cl)c3)c(=O)n21)N1CCCC1 (racemic) [Example 73, (5RS)-2-[3-Chloro-4-(trifluoromethoxy)benzyl]-5-(pyrrolidin-1-ylcarbonyl)-5,6,7,8-tetrahydro[1,2,4]triazolo[4,3-a]pyridin-3(2H)-one]"
7,4.8 nM,"Cc1nc(C(F)(F)F)c(Cn2nc3n(c2=O)C(C(=O)N2CCCC2)CCC3)s1 (racemic) [Example 77, (5RS)-2-{[2-Methyl-4-(trifluoromethyl)-1,3-thiazol-5-yl]methyl}-5-(pyrrolidin-1-ylcarbonyl)-5,6,7,8-tetrahydro[1,2,4]triazolo[4,3-a]pyridin-3(2H)-one]"
8,6 nM,"O=C(C1CCCc2nn(Cc3ccc(Cl)cn3)c(=O)n21)N1CCC(F)(F)C1 (racemic) [Example 78, (5RS)-2-[(5-Chloropyridin-2-yl)methyl]-5-[(3,3-difluoropyrrolidin-1-yl)carbonyl]-5,6,7,8-tetrahydro[1,2,4]triazolo[4,3-a]pyridin-3(2H)-one]"
9,6.7 nM,"O=C(C1CCCc2nn(Cc3ccc(C(F)(F)F)nc3)c(=O)n21)N1CCC(F)(F)C1 (racemic) [Example 79, (5RS)-5-[(3,3-Difluoropyrrolidin-1-yl)carbonyl]-2-{[6-(trifluoromethyl)pyridin-3-yl]methyl}-5,6,7,8-tetrahydro[1,2,4]triazolo[4,3-a]pyridin-3(2H)-one]"
10,16 nM,"O=C(C1CCCc2nn(Cc3ccc(Cl)nc3)c(=O)n21)N1CCC(F)(F)C1 (racemic) [Example 80, (5RS)-2-[(6-Chloropyridin-3-yl)methyl]-5-[(3,3-difluoropyrrolidin-1-yl)carbonyl]-5,6,7,8-tetrahydro[1,2,4]triazolo[4,3-a]pyridin-3(2H)-one]"
11,0.84 nM,"O=C(C1CCCc2nn(Cc3cc(Cl)cc(Cl)c3)c(=O)n21)N1CCCC1 (racemic) [Example 81, (5RS)-2-(3,5-Dichlorobenzyl)-5-(pyrrolidin-1-ylcarbonyl)-5,6,7,8-tetrahydro[1,2,4]triazolo[4,3-a]pyridin-3(2H)-one]"
12,1.75 nM,"O=C(C1CCCc2nn(Cc3cc(Cl)cc(Cl)c3)c(=O)n21)N1CCC(F)(F)C1 (racemic) [Example 82, (5RS)-2-(3,5-Dichlorobenzyl)-5-[(3,3-difluoropyrrolidin-1-yl)carbonyl]-5,6,7,8-tetrahydro[1,2,4]triazolo[4,3-a]pyridin-3(2H)-one]"
13,2.1 nM,"O=C(C1CCCc2nn(Cc3ccc(F)c(F)c3)c(=O)n21)N1CCC(F)(F)C1 (racemic) [Example 83, (5RS)-2-(3,4-Difluorobenzyl)-5-[(3,3-difluoropyrrolidin-1-yl)carbonyl]-5,6,7,8-tetrahydro[1,2,4]triazolo[4,3-a]pyridin-3(2H)-one]"
14,5.7 nM,"O=C(C1CCCc2nn(Cc3ccc(C(F)(F)F)nc3)c(=O)n21)N1CCCC1 (racemic) [Example 84, (5RS)-5-(Pyrrolidin-1-ylcarbonyl)-2-{[6-(trifluoromethyl)pyridin-3-yl]methyl}-5,6,7,8-tetrahydro[1,2,4]triazolo[4,3-a]pyridin-3(2H)-one]"
15,1 nM,"O=C(C1CCCc2nn(Cc3ccc(F)c(Cl)c3)c(=O)n21)N1CCC(F)(F)C1 (racemic) [Example 86, (5RS)-2-(3-Chloro-4-fluorobenzyl)-5-[(3,3-difluoropyrrolidin-1-yl)carbonyl]-5,6,7,8-tetrahydro[1,2,4]triazolo[4,3-a]pyridin-3(2H)-one]"
16,1.17 nM,"O=C(C1CCCc2nn(Cc3ccc4c(c3)CCCC4)c(=O)n21)N1CCC(F)(F)C1 (racemic) [Example 87, (5RS)-5-[(3,3-Difluoropyrrolidin-1-yl)carbonyl]-2-(5,6,7,8-tetrahydronaphthalen-2-ylmethyl)-5,6,7,8-tetrahydro[1,2,4]triazolo[4,3-a]pyridin-3(2H)-one]"
17,0.27 nM,"O=C(C1CCCc2nn(Cc3ccc4c(c3)CCCC4)c(=O)n21)N1CCCC1 (racemic) [Example 88, (5RS)-5-(Pyrrolidin-1-ylcarbonyl)-2-(5,6,7,8-tetrahydronaphthalen-2-ylmethyl)-5,6,7,8-tetrahydro[1,2,4]triazolo[4,3-a]pyridin-3(2H)-one]"
18,1.3 nM,"O=C(C1CCCc2nn(Cc3cc(F)c(F)cc3F)c(=O)n21)N1CCCC1 (racemic) [Example 89, (5RS)-5-(Pyrrolidin-1-ylcarbonyl)-2-(2,4,5-trifluorobenzyl)-5,6,7,8-tetrahydro[1,2,4]triazolo[4,3-a]pyridin-3(2H)-one]"
19,9.8 nM,"Cn1ccc(Cn2nc3n(c2=O)C(C(=O)N2CCC(F)(F)C2)CCC3)n1 (racemic) [Example 90, (5RS)-5-[(3,3-Difluoropyrrolidin-1-yl)carbonyl]-2-[(1-methyl-1H-pyrazol-3-yl)methyl]-5,6,7,8-tetrahydro[1,2,4]triazolo[4,3-a]pyridin-3(2H)-one]"
20,2.3 nM,"O=C(C1CCCc2nn(Cc3cc(F)c(F)cc3F)c(=O)n21)N1CCC(F)(F)C1 (racemic) [Example 91, (5RS)-5-[(3,3-Difluoropyrrolidin-1-yl)carbonyl]-2-(2,4,5-trifluorobenzyl)-5,6,7,8-tetrahydro[1,2,4]triazolo[4,3-a]pyridin-3(2H)-one]"
21,3 nM,"COc1ccc(Cn2nc3n(c2=O)C(C(=O)N2CCCC2)CCC3)cn1 (racemic) [Example 92, (5RS)-2-[(6-Methoxypyridin-3-yl)methyl]-5-(pyrrolidin-1-ylcarbonyl)-5,6,7,8-tetrahydro[1,2,4]triazolo[4,3-a]pyridin-3(2H)-one]"
22,9 nM,"O=C(C1CCCc2nn(Cc3ccc(F)c(Cl)c3)c(=O)n21)N1CC(O)C1 (racemic) [Example 95, (5RS)-2-(3-Chloro-4-fluorobenzyl)-5-[(3-hydroxyazetidin-1-yl)carbonyl]-5,6,7,8-tetrahydro[1,2,4]triazolo[4,3-a]pyridin-3(2H)-one]"
23,7.4 nM,"O=C(C1CCCc2nn(Cc3ccc(C(F)(F)F)nc3)c(=O)n21)N1CC(F)C1 (racemic) [Example 96, (5RS)-5-[(3-Fluoroazetidin-1-yl)carbonyl]-2-{[6-(trifluoromethyl)pyridin-3-yl]methyl}-5,6,7,8-tetrahydro[1,2,4]triazolo[4,3-a]pyridin-3(2H)-one]"
24,0.16 nM,"Cc1nc(C)c(Cn2nc3n(c2=O)C(C(=O)N2CCCC2)CCC3)nc1C (racemic) [Example 103, (5RS)-5-(Pyrrolidin-1-ylcarbonyl)-2-[(3,5,6-trimethylpyrazin-2-yl)methyl]-5,6,7,8-tetrahydro[1,2,4]triazolo[4,3-a]pyridin-3(2H)-one]"
25,10.5 nM,"Cc1ccc(Cn2nc3n(c2=O)C(C)(C(=O)N2CCCC2)CCC3)cc1 (racemic) [Example 105, 5(RS)-5-Methyl-2-(4-methylbenzyl)-5-(pyrrolidin-1-ylcarbonyl)-5,6,7,8-tetrahydro[1,2,4]triazolo[4,3-a]pyridin-3(2H)-one]"
26,1.59 nM,"Cc1ccc(Cn2nc3n(c2=O)C(C(=O)N2CC(F)C2)CCC3)cc1 (racemic) [Example 112, (5RS)-5-[(3-Fluoroazetidin-1-yl)carbonyl]-2-(4-methylbenzyl)-5,6,7,8-tetrahydro[1,2,4]triazolo[4,3-a]pyridin-3(2H)-one]"
27,1.95 nM,"Cc1ccc(Cn2nc3n(c2=O)C(C(=O)N2CC(F)(F)C2)CCC3)cc1 (racemic) [Example 114, (5RS)-5-[(3,3-Difluoroazetidin-1-yl)carbonyl]-2-(4-methylbenzyl)-5,6,7,8-tetrahydro[1,2,4]triazolo[4,3-a]pyridin-3(2H)-one]"
